Test results taken from patent US20250179103A1, “6-OXODECAHYDROPYRROLO[1,2-A][1,5]DIAZOCINE AND 6-OXODECAHYDRO-4H-PYRROLO[2,1-D][1,5]THIAZOCINE DERIVATIVES AS STAT3 AND STAT6 MODULATORS FOR THE TREATMENT OF CANCER AND INFLAMMATORY CONDITIONS” (Recludix Pharma, Inc., priority 2022, published 2025).
pIC50: −log10 of the molar value.

How the values were obtained:
[1] = tested on: pY705-STAT3 in Peripheral Blood Mononuclear Cells (PBMC); experiment: MSD-pSTAT-PBMC Assay (pSTAT3, IL-6 stimulated); type: cell-based, Human; details: Homo sapiens, compound 3 hrs, then 10 ng/mL IL-6 for 10 min
From the text: Cryopreserved Peripheral Blood Mononuclear Cells (PBMC) are from AllCells. Recombinant Human IL-4 and IL-6 are from Peprotech. Mouse monoclonal anti-STAT3 antibody, rabbit monoclonal anti-pY705-STAT3 antibody, rabbit monoclonal Anti-pY641-STAT6 antibody, and lysis buffer are from Cell Signaling Technology (CST). Mouse monoclonal anti-STAT6 antibody is from BioLegend. Assay plates, blocker, and anti-rabbit secondary antibody are from Meso Scale Discovery (MSD).
Cryopreserved PBMCs were thawed out and allowed to recover overnight in IMDM+10% heat-inactivated FBS prior to plating 50,000 (STAT3) or 25,000 (STAT6) cells per well in 96-well U-bottom tissue culture plates. Cells were treated with compound for 3 hrs, then stimulated with 10 ng/mL IL-6 (STAT3) or 1 ng/mL IL-4 (STAT6) for 10 min. Cells were then spun down and washed with ice-cold PBS prior to lysing the cell pellet with 1× lysis buffer (CST) with 1×HALT protease and phosphatase inhibitor cocktail (Thermo). Lysates were transferred to and incubated overnight at 4° C. with shaking in QuickPlex 96-well high bind assay plates (MSD) pre-coated overnight with 30 μL per well of 0.6 μg/mL mouse monoclonal anti-STAT3 antibody (STAT3) or 2 μg/mL mouse monoclonal anti-STAT6 antibody (STAT6) in 1×PBS, and pre-blocked for 1 hour with 3% Blocker-A (MSD). Captured protein in the assay plates were then washed and probed with 25 μL per well of 0.25 μg/ml rabbit monoclonal anti-pY705-STAT3 antibody (STAT3) or […] rabbit monoclonal Anti-pY641-STAT6 antibody (STAT6) in 1% Blocker-A for 1 hour at room temperature with shaking, then washed and probed with 25 ul per well of 1 ug/ml Sulfo-TAG Labeled Goat Anti-Rabbit Antibody (MSD) in 1% Blocker-A for 1 hour at room temperature with shaking. Assay plates were then washed and 150 μL of 1× Read Buffer-T (MSD) was added to each well prior to reading on an SQ120 MSD Plate Reader. Assay signal from each sample was subtracted by the signal from unstimulated control wells and normalized to DMSO control wells. IC50 values were calculated using Graph Pad Prism Dose-Response Nonlinear Regression with variable slope. For both pSTAT3 and pSTAT6 A=≤100 nM; B=>100-1000 nM; C=>1000-3000 nM; and D=>3 μM.

[2] = tested on: pY641-STAT6 in Peripheral Blood Mononuclear Cells (PBMC); experiment: MSD-pSTAT-PBMC Assay (pSTAT6, IL-4 stimulated); type: cell-based, Human; details: Homo sapiens, compound 3 hrs, then 1 ng/mL IL-4 for 10 min
How it was run: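 Phospho-STAT readout used MSD electrochemiluminescence with total STAT3 or STAT6 capture in lysates of cryopreserved human PBMCs. Cells had 3 h compound exposure before a 10 min cytokine pulse: IL-6 10 ng/mL for pSTAT3, IL-4 1 ng/mL for pSTAT6. IC50 came from background-subtracted, DMSO-normalised signal, with categories A≤100 nM up to D>3 μM.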

| SMILES | pIC50 [1] | pIC50 [2] |
| --- | --- | --- |
| CCN1CC[C@H]2CC[C@@H](C(=O)N3C[C@@H](C#N)[C@H](c4ccccc4)C3)N2C(=O)[C@@H](NC(=O)c2ccc3ccc(C(F)(F)P(=O)(OCCSC(=O)C(C)(C)C)OCCSC(=O)C(C)(C)C)cc3c2)C1 (single isomer, unassigned) [Compound 343, S,S′-(((((7-(((5S,8S,10aR)-8-((3S,4R or 3R,4S)-3-cyano-4-phenylpyrrolidine-1-carbonyl)-3-ethyl-6-oxodecahydropyrrolo[1,2-a][1,5]diazocin-5-yl)carbamoyl)naphthalen-2-yl)difluoromethyl)phosphoryl)bis(oxy))bis(ethane-2,1-diyl))bis(2,2-dimethylpropanethioate)] | 5.52 to 6.00 | 6.00 to 7.00 |
| CC(=O)N1CC[C@H]2CC[C@@H](C(=O)N(C)c3ccc(N4CCOCC4)cc3)N2C(=O)[C@@H](NC(=O)c2cc3cc(C(F)(F)P(=O)(OCOC(=O)C(C)(C)C)OCOC(=O)C(C)(C)C)ccc3s2)C1 [Compound 311, ((((2-(((5S, 8S,10aR)-3-acetyl-8-(methyl(4-morpholino-phenyl)carbamoyl)-6-oxodecahydro-pyrrolo[1,2-a][1,5]diazocin-5-yl)carbamoyl)benzo[b]thiophen-5-yl)difluoro-methyl)phos-phoryl)bis(oxy)) bis(methylene) bis(2,2-dimethylpro-panoate)] | 5.52 to 6.00 | 6.00 to 7.00 |
| CCCC(=O)SCCOP(=O)(OCCSC(=O)CCC)C(F)(F)c1ccc2ccc(C(=O)N[C@H]3CN(C(=O)c4n[nH]c5ccc(C)cc45)CC[C@H]4CC[C@@H](C(=O)N5CC(c6ccccc6)[C@@H](C#N)C5)N4C3=O)cc2c1 (relative stereo) [Compound 336, S,S′-(((((7-(((5S,8S,10aR)-8-((rel-trans)-3-cyano-4-phenylpyrrolidine-1-carbonyl)-3-(5-methyl-1H-indazole-3-carbonyl)-6-oxodecahydropyrrolo[1,2-a][1,5]diazocin-5-yl)carbamoyl)naphthalen-2-yl)difluoromethyl)phosphoryl)bis(oxy))bis(ethane-2,1-diyl)) dibutanethioate] | 5.52 to 6.00 | ≥ 7.00 |
| CCN1CC[C@H]2CC[C@@H](C(=O)N3CC(C(=O)N4CCOCC4)C3)N2C(=O)[C@@H](NC(=O)c2cc3cc(C(F)(F)P(=O)(OCOC(=O)C(C)(C)C)OCOC(=O)C(C)(C)C)ccc3s2)C1 [Compound 353, ((((2-(((5S,8S,10aR)-3-ethyl-8-(3-(morpholine-4-carbonyl)azetidine-1-carbonyl)-6-oxodecahydropyrrolo[1,2-a][1,5]diazocin-5-yl)carbamoyl)benzo[b]thiophen-5-yl)difluoromethyl)phosphoryl)bis(oxy)) bis(methylene) bis(2,2-dimethylpropanoate)] | ≥ 7.00 | < 5.52 |
| CC(=O)N1CC[C@H]2CC[C@@H](C(=O)N(C)c3ccc4nnccc4c3)N2C(=O)[C@@H](NC(=O)c2cc3cc(C(F)(F)P(=O)(OCOC(=O)C(C)(C)C)OCOC(=O)C(C)(C)C)ccc3s2)C1 [Compound 290, ((((2-(((5S,8S, 10aR)-3-acetyl-8-(cinnolin-6-yl(methyl)carbamoyl)-6-oxodecahydro-pyrrolo[1,2-a][1,5]diazocin-5-yl)carbamoyl)benzo[b]thiophen-5-yl)difluoro-methyl)phos-phoryl)bis(oxy)) bis(methylene) bis(2,2-dimethylpro-panoate)] | 5.52 to 6.00 | 6.00 to 7.00 |
| CCCC(=O)SCCOP(=O)(OCCSC(=O)CCC)C(F)(F)c1ccc2ccc(C(=O)N[C@H]3CN(C(C)=O)CC[C@H]4CC[C@@H](C(=O)N5C[C@H](c6cc[nH]c(=O)c6)[C@@H](C#N)C5)N4C3=O)cc2c1 (single isomer, unassigned) [Compound 304, S,S′-(((((7-(((5S,8S, 10aR)-3-acetyl-8-((3R,4S or 3S,4R)-3-cyano-4-(2-oxo-1,2-dihydro-pyridin-4-yl)pyrrolidine-1-carbonyl)-6-oxodecahydro-pyrrolo[1,2-a][1,5]diazocin-5-yl)carbamoyl)naphthalen-2-yl)difluoro-methyl)phos-phoryl)bis(oxy))bis(ethane-2,1-diyl))di-butanethioate] | < 5.52 | 6.00 to 7.00 |
| Cc1ccc2[nH]nc(C(=O)N3CC[C@H]4CC[C@@H](C(=O)N(C)C)N4C(=O)[C@@H](NC(=O)c4cc5cc(CP(=O)(N[C@@H](C)C(=O)OC(C)C)Oc6ccccc6)ccc5s4)C3)c2c1 (stereo partly drawn) [Compound 337, isopropyl(((2-(((5S,8S,10aR)-8-(dimethylcarbamoyl)-3-(5-methyl-1H-indazole-3-carbonyl)-6-oxodecahydropyrrolo[1,2-a][1,5]diazocin-5-yl)carbamoyl)benzo [b]thiophen-5-yl)methyl)(phenoxy)phosphoryl)-L-alaninate] | < 5.52 | < 5.52 |
| CCCN(CCC)C(=O)OCOP(=O)(OCOC(=O)N(CCC)CCC)C(F)(F)c1ccc2sc(C(=O)N[C@@H]3CN(C(C)=O)CC[C@@H]4CC[C@H](C(=O)N(C)c5ccccc5)N4C3=O)cc2c1 [Compound 292, ((((2-(((5R,8R, 10aS)-3-acetyl-8-(methyl (phenyl)carbamoyl)-6-oxodecahydro-pyrrolo[1,2-a][1,5]diazocin-5-yl)carbamoyl)benzo[b]thiophen-5-yl)difluoro-methyl)phos-phoryl)bis(oxy)) bis(methylene) bis(dipropyl-carbamate)] | < 5.52 | < 5.52 |
| CC(=O)N1CC[C@H]2CC[C@@H](C(=O)N(C)c3ccc(C#N)cc3)N2C(=O)[C@@H](NC(=O)c2cc3cc(C(F)(F)P(=O)(OCOC(=O)C(C)(C)C)OCOC(=O)C(C)(C)C)ccc3s2)C1 [Compound 316, ((((2-(((5S,8S, 10aR)-3-acetyl-8-((4-cyanophenyl) (methyl)carbamoyl)-6-oxodecahydro-pyrrolo[1,2-a][1,5]diazocin-5-yl)carbamoyl)benzo[b]thiophen-5-yl)difluoro-methyl)phos-phoryl)bis(oxy)) bis(methylene) bis(2,2-dimethylpro-panoate)] | < 5.52 | 5.52 to 6.00 |
| CCCC(=O)SCCOP(=O)(OCOC(=O)OC(C)C)C(F)(F)c1ccc2ccc(C(=O)N[C@H]3CN(C(C)=O)CC[C@H]4CC[C@@H](C(=O)N5C[C@H](c6cc[nH]c(=O)c6)[C@@H](C#N)C5)N4C3=O)cc2c1 (single isomer, unassigned) [Compound 303, S-(2-((((7-(((5S,8S, 10aR)-3-acetyl-8-((3R,4S or 3S,4R)-3-cyano-4-(2-oxo-1,2-dihydro-pyridin-4-yl)pyrrolidine-1-carbonyl)-6-oxodecahydro-pyrrolo[1,2-a][1,5]diazocin-5-yl)carbamoyl)naphthalen-2-yl)difluoro-methyl)(((iso-propoxy-carbonyl)oxy)methoxy)phosphoryl)oxy)ethyl) butanethioate] | 5.52 to 6.00 | 6.00 to 7.00 |
| CC(=O)N1CC[C@H]2CC[C@@H](C(=O)N(C)c3ccccc3)N2C(=O)[C@@H](NC(=O)c2ccc3ccc(C(F)(F)P(=O)(OCOC(=O)C(C)(C)C)OCOC(=O)C(C)(C)C)cc3c2)C1 [Compound 321, ((((7-(((5S,8S, 10aR)-3-acetyl-8-(methyl (phenyl)carbamoyl)-6-oxodecahydro-pyrrolo[1,2-a][1,5]diazocin-5-yl)carbamoyl)naphthalen-2-yl)difluoro-methyl)phos-phoryl)bis(oxy)) bis(methylene) bis(2,2-dimethylpro-panoate)] | 6.00 to 7.00 | ≥ 7.00 |
| CC(C)(C)C(=O)OCOP(=O)(OCOC(=O)C(C)(C)C)C(F)(F)c1ccc2sc(C(=O)N[C@H]3CN(CC(F)F)CC[C@H]4CC[C@@H](C(=O)N5C[C@@H](C#N)[C@H](c6ccccc6)C5)N4C3=O)cc2c1 (single isomer, unassigned) [Compound 348, ((((2-(((5S,8S,10aR)-8-((3S,4R or 3R,4S)-3-cyano-4-phenylpyrrolidine-1-carbonyl)-3-(2,2-difluoroethyl)-6-oxodecahydropyrrolo[1,2-a][1,5]diazocin-5-yl)carbamoyl)benzo[b]thiophen-5-yl)difluoromethyl)phosphoryl)bis (oxy)) bis(methylene) bis(2,2-dimethylpropanoate)] | ≥ 7.00 | ≥ 7.00 |
